Experimental data as given in US9302999B2, “Substituted triazoles as herbicides” (E. I. DU PONT DE NEMOURS AND COMPANY, priority 2012, dated 2016).

Columns and labels:
[1] = system: pigweed (Amaranthus retroflexus); experiment: Test F postemergence: pigweed; assay type: in vivo; conditions: scale 0 to 100
Source text: Seeds of plant species selected from corn (Zea mays), soybean (Glycine max), velvetleaf (Abutilon theophrasti), lambsquarters (Chenopodium album), poinsettia, wild (wild poinsettia, Euphorbia heterophylla), pigweed, palmer (palmer pigweed, Amaranthus palmeri), waterhemp (common waterhemp, Amaranthus rudis), surinam grass (Brachiaria decumbens), crabgrass, Brazil (Brazilian crabgrass, Digitaria horizontalis), panicum, fall (fall panicum Panicum dichotomiflorum), crabgrass, large (large crabgrass, Digitaria sanguinalis), foxtail, giant (giant foxtail, Setaria faberii), foxtail, green (green foxtail Setaria viridis), goosegrass (Eleusine indica), ragweed (common ragweed, Ambrosia elatior), barnyardgrass (Echinochloa crus-galli), sandbur (southern sandbur, Cenchrus echinatus), arrowleaf sida (Sida rhombifolia), ryegrass, Italian (Italian ryegrass, Lolium multiflorum), dayflower, VA (Virginia (VA) dayflower, Commelina virginica), field bindweed (Convolvulus arvensis), cocklebur (common cocklebur, Xanthium strumarium), morningglory (Ipomoea coccinea), nightshade (eastern black nightshade, Solanum ptycanthum), kochia (Kochia scoparia), nutsedge, yellow (yellow nutsedge, Cyperus esculentus), johnsongrass (Sorghum halepense), smartweed (ladysthumb smartweed, Polygonum persicaria), and beggarticks (hairy beggarticks, Bidens pilosa), were planted into a silt loam soil and treated preemergence with test chemicals formulated in a non-phytotoxic solvent mixture which included a surfactant. At the same time, plants selected from these crop and weed species and also pigweed (Amaranthus retroflexus), waterhemp_RES1 (ALS/Triazine resistant common waterhemp, Amaranthus rudis) and waterhemp_RES2 (ALS/HPPD resistant common waterhemp, Amaranthus rudis) were planted in pots containing a planting medium comprising spaghnum peat moss, vermiculite, wetting agent and starter nutrients treated with postemergence applications of some of the test chemicals formulated in the same manner. Plants ranged in height from 2 to 18 cm for postemergence treatments (1- to 4-leaf stage).
Treated plants and controls were maintained in a greenhouse for 14 to 21 days, after which time all species were compared to controls and visually evaluated. Plant response ratings, summarized in Table E, are based on a scale of 0 to 100 where 0 is no effect and 100 is complete control. A dash (-) response means no test result.

Waterhemp = experiment: Test C preemergence: waterhemp; assay type: in vivo; conditions: scale 0 (no effect) to 100 (complete control)

| Compound | Plant response rating, Pigweed ([1]; 8 g ai/ha) | Plant response rating, Pigweed ([1]; 16 g ai/ha) | Plant response rating, Pigweed ([1]; 31 g ai/ha) | Plant response rating, Pigweed ([1]; 62 g ai/ha) | Plant response rating, Pigweed ([1]; 125 g ai/ha) | Plant response rating, Waterhemp (Waterhemp; 16 g ai/ha) | Plant response rating, Waterhemp (Waterhemp; 31 g ai/ha) |
| --- | --- | --- | --- | --- | --- | --- | --- |
| Cc1nn(-c2ccnc(Cl)c2)nc1Cc1ccnc(C(F)(F)F)c1 [Compound 141] | 90 | 95 | 95 | 95 | 95 | – | – |
| FCc1nn(-c2ccc(F)cc2)nc1Oc1ccnc(C(F)(F)F)c1 [Compound 160] | – | – | – | – | – | 100 | – |
| CCOc1nn(-c2ccc(Cl)cc2)nc1Cc1ccnc(C(F)(F)F)c1 [Compound 188] | – | – | – | – | – | – | 100 |
| CCOc1nn(-c2ccc(F)cc2)nc1Cc1ccnc(C(F)(F)F)c1 [Compound 196, 4-[[5-ethoxy-2-(4-fluorophenyl)-2H-1,2,3-triazol-4-yl]methyl]-2-(trifluoromethyl)pyridine] | 85 | 95 | 95 | 95 | 95 | – | – |
